pIC50: −log10 of the molar value.

Data set [1] has as its target Serine/threonine-protein kinase PLK1 (Homo sapiens, UniProt P53350). The data set can be described thus: Inhibition of PLK1 expressed in baculovirus infected Trichoplusia ni cells.
The test system of data set [2] is RKO. Briefly: Antiproliferative activity against human RKO cells after 72 hrs. It counts as functional, cell-based.
Data set [3] concerns HCT-116. The data set can be described thus: Antiproliferative activity against human HCT116 cells after 72 hrs. It counts as functional, cell-based. The following applies: HCT-116, 72 h.
The test system of data set [4] is NCI-H460. The data set can be described thus: Antiproliferative activity against human H460 cells after 72 hrs. It counts as functional, cell-based. The following applies: NCI-H460, 72 h.
Data set [5] has as its system MCF7. The data set can be described thus: Antiproliferative activity against human MCF7 cells after 72 hrs. The class given is functional, cell-based. The following applies: MCF7, 72 h.
The test system of data set [6] is PC-3. The data set can be described thus: Antiproliferative activity against human PC3 cells after 72 hrs. The class given is functional, cell-based. The following applies: PC-3, 72 h.
Data set [7] has as its target Serine/threonine-protein kinase PLK3 (Homo sapiens, UniProt Q9H4B4). Briefly: Inhibition of PLK3 expressed in baculovirus infected Trichoplusia ni cells.
The nature of data set [8]: Clearance in mouse at 5 mg/kg, iv. It counts as ADME, organism-based. Also on record: dose 5 mg/kg, route intravenous. The following applies: in vivo.
Data set [9] is described as follows: Volume of distribution at steady state in mouse at 5 mg/kg, iv. The following applies: in vivo, read-out: Vdss. It counts as ADME, organism-based. Also on record: dose 5 mg/kg, route intravenous.
The nature of data set [10]: AUC in po dosed mouse. The class given is ADME, organism-based. The following applies: plasma.
Data set [11] in a line: Oral bioavailability in mouse. The class given is ADME, organism-based. The following applies: in vivo.
Data set [12] can be described thus: Clearance in mouse at 2.9 mg/kg, iv. The following applies: in vivo. It counts as ADME, organism-based. More on the design: dose 2.9 mg/kg, route intravenous.
The nature of data set [13]: Volume of distribution at steady state in mouse at 2.9 mg/kg, iv. It counts as ADME, organism-based. More on the design: dose 2.9 mg/kg, route intravenous. The following applies: in vivo, read-out: Vdss.

Chain of Serine/threonine-protein kinase PLK1 (P53350 whole entry): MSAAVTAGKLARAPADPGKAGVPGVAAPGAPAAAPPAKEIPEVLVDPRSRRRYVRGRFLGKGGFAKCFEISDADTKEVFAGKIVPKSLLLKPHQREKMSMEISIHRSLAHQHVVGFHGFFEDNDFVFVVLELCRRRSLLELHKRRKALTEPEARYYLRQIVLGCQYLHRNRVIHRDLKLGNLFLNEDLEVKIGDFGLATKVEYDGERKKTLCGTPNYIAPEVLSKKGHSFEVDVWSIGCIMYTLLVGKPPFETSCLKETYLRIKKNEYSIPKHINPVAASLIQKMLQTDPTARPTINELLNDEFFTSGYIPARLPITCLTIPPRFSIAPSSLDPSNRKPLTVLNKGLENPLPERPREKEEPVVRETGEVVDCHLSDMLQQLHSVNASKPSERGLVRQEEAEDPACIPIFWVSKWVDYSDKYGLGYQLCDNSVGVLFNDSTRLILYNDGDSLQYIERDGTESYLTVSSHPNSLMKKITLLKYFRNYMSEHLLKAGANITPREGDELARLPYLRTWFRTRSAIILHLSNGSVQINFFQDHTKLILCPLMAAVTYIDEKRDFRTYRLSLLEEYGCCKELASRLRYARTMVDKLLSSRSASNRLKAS
Chain of Serine/threonine-protein kinase PLK3 (Q9H4B4 whole entry): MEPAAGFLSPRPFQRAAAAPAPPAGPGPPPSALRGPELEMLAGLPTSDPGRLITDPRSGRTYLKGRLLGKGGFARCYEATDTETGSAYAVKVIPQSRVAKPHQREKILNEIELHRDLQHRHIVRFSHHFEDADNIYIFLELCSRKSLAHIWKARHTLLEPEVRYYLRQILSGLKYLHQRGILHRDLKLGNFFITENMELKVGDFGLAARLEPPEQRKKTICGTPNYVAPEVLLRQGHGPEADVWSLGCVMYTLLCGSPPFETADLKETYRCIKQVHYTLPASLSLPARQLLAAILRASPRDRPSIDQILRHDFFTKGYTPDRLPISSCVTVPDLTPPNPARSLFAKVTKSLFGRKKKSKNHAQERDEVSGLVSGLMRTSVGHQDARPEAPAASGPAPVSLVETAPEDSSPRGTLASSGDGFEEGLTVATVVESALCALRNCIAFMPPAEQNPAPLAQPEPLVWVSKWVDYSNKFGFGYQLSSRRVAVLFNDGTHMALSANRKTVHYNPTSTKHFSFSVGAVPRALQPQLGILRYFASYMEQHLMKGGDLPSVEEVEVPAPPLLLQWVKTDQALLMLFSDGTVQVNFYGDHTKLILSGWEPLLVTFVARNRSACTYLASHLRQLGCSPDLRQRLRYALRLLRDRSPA

In [1], `COc1cc(Nc2ncc3c(C)nc(-c4ccc(F)cc4)n3n2)cc(OC)c1OC` showed a negative logarithm of the IC50 (pIC50) of 7.10.

`Cc1nc(-c2ccccc2)n2nc(NCCc3ccncc3)ncc12` showed a pIC50 in data set [1] of under 5.00.

`Cc1nc(-c2ccccc2)n2nc(Nc3cccc(C(F)(F)F)c3)ncc12` showed a pIC50 in data set [1] of under 5.00.

In turn, `COc1cc(Nc2ncc3c(C)nc(-c4ccc(C(F)(F)F)cc4)n3n2)cc(OC)c1OC` had a negative logarithm of the IC50 (pIC50) in data set [1] of 5.97.

For `Cc1nc(-c2ccccc2)n2nc(Nc3ccc([N+](=O)[O-])cc3)ncc12`, the pIC50 in data set [1] is 5.55.

In data set [1], `Cc1nc(-c2ccccc2)n2nc(Nc3ccc(S(N)(=O)=O)cc3)ncc12` showed a pIC50 of 5.56.

On to `COc1ccccc1-c1nc(C)c2cnc(Nc3cc(OC)c(OC)c(OC)c3)nn12`, for which the pIC50 in [1] is 5.25.

In turn, `COc1cc(Nc2ncc3c(C)nc(-c4ccccc4[N+](=O)[O-])n3n2)cc(OC)c1OC` gave a pIC50 in data set [1] of 5.70.

On to `Cc1nc(-c2ccccc2)n2nc(NC3CCCCC3)ncc12`, for which the pIC50 in data set [1] was under 5.00.

`Cc1nc(-c2ccccc2)n2nc(Nc3ccccc3)ncc12`: the negative-log IC50 (pIC50) in data set [1] is 5.92.

`COc1cccc(Nc2ncc3c(C)nc(-c4ccccc4)n3n2)c1` had a pIC50 in data set [1] of 6.52.

`COc1cc(Nc2ncc3c(C)nc(-c4ccccc4Br)n3n2)cc(OC)c1OC` had a pIC50 in data set [1] of 5.57.

In the case of `Cc1nc(-c2ccccc2)n2nc(N)ncc12`, the pIC50 in [1] was under 5.00.

`Cc1nc(-c2ccccc2)n2nc(NCc3ccccc3)ncc12` had a pIC50 in data set [1] of 5.82.

In the case of `COc1ccc(Nc2ncc3c(C)nc(-c4ccccc4)n3n2)cc1`, the pIC50 in data set [1] was 6.17.

On to `COc1cc(Nc2ncc3c(C)nc(-c4cccc(Br)c4)n3n2)cc(OC)c1OC`, for which the pIC50 was 7.15 in data set [1]; 5.12 in data set [2]; 5.11 in data set [3]; 5.24 in data set [4]; 4.96 in data set [5]; 4.59 in data set [6].

As for `COc1cc(Nc2ncc3c(C)nc(-c4ccccc4)n3n2)cc(OC)c1OC`, the pIC50 in data set [7] is 7.05; in data set [2], 5.43; in data set [3], 5.28; in data set [4], 5.19; in data set [5], 5.28; in data set [6], 4.92. Also, the clearance in data set [8] was found to be 53 mL/min/kg. Besides, in [9], the Vd was determined as 1.6 L/kg. In [10], the AUC worked out at 301 ng·h/mL. The compound also had a bioavailability in [11] of 10%.

`Cc1nc(-c2ccccc2)n2nc(Nc3ccc(OCCN(C)C)cc3)ncc12`: the pIC50 in data set [1] is 6.42.

In data set [1], `COc1ccc(Nc2ncc3c(C)nc(-c4ccccc4)n3n2)cc1OC` had a pIC50 of 7.05.

With `COc1cc(Nc2ncc3c(C)nc(-c4cccc(C(F)(F)F)c4)n3n2)cc(OC)c1OC` [GW837331X], the pIC50 in data set [2] is 5.49; in [3] it was 5.41; in data set [4] it was 5.27; in data set [5] it was 5.32; in data set [6], 5.11. In addition, the clearance in data set [12] amounted to 81 mL/min/kg. In data set [13], the Vd is 2.3 L/kg. In addition, the exposure (AUC) in [10] stood at 264 ng·h/mL. The same compound displayed a bioavailability in data set [11] of 18%.

In turn, `Cc1nc(-c2ccccc2)n2nc(NCCCN3CCOCC3)ncc12` [GW874091X] showed a pIC50 in data set [1] of under 5.00.

What is called pIC50 is −log10 of the IC50, conventionally taken in molar units. Low values mean a high IC50, high ones a low IC50. The clearance is the rate of elimination divided by the concentration. Higher therefore signals a high capacity for elimination. As a reminder, the AUC is concentration integrated over time. Higher therefore signals more exposure. Broadly, the bioavailability is the share of a dose that reaches the circulation, judged against a reference dose that is usually intravenous. Low readings indicate poor availability, high ones good availability.

Values taken from ChEMBL document CHEMBL1152258, “Imidazo[5,1-f][1,2,4]triazin-2-amines as novel inhibitors of polo-like kinase 1” (Bioorg Med Chem Lett, 2008).
